# Earlier results in US7253172B2, “Dipeptidyl peptidase inhibitors for the treatment of diabetes” (Merck & Co., Inc., priority 2001, dated 2007).
# What was measured:
# hematopoiesis = settings: mouse, cyclophosphamide-induced neutropenia
# DP-IV = target: T1, DP-IV (Homo sapiens, UniProt P27487)
# T1 construct: GRF is rapidly degraded in plasma to GRF[3–44]
# cardiac allograft = settings: rats; doubled from day 7 to day 14
# T1 sequence (P27487 39-766 limits assumed): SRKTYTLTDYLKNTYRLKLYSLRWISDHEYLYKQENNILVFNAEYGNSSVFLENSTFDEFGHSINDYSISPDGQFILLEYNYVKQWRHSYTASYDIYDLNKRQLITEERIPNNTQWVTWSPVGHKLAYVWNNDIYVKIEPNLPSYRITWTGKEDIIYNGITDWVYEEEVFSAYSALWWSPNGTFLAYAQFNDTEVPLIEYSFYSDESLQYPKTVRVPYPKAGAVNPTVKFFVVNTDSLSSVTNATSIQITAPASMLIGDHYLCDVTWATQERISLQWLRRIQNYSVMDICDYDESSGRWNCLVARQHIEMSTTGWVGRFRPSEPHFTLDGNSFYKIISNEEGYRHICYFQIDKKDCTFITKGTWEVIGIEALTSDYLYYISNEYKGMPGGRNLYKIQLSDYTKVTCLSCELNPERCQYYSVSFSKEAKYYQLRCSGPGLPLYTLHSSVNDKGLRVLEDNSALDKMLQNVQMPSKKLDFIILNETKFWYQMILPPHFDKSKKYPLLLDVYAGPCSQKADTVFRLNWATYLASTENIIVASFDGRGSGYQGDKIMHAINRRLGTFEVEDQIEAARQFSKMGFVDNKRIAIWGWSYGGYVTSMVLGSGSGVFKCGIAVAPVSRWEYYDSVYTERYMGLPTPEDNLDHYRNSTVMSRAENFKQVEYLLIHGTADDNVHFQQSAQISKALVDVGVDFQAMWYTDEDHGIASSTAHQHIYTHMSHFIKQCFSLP
compound,measurement,setting,value
CC(C)[C@H](N)C(=O)N1CCC[C@H]1B(O)O [Val-Boro-Pro],hematopoiesis,hematopoiesis,stimulates hematopoiesis
diprotin A,degradation of GRF in plasma to GRF[3–44],DP-IV,prevented
"CC(C)N1CCC(c2ccccc2)(c2ccccc2)CC1 [Prodipine, Pro-Pro-diphenyl-phosphonate]",cardiac allograft survival,cardiac allograft,14 day
